Assay results reported in US20240246980A1, “MODULATORS OF MAS-RELATED G-PROTEIN RECEPTOR D AND RELATED PRODUCTS AND METHODS” (Escient Pharmaceuticals, Inc., priority 2022, published 2024).

Target: human MRGPRD (Homo sapiens, UniProt Q8TDS7)
Assay: MRGPRD antagonist activity, IP-One HTRF assay in CHO cells stably expressing human MRGPRD (versus 100 μM β-Alanine agonist)
Type: cell-based
Method: Chinese Hamster Ovary (CHO) cells stably expressing human MRGPRD (Eurofins, San Diego CA) were plated in a 384-well plate at 20,000 cells per well in 12 μL of Optimem (Fisher Scientific 11-058-021). Plates were kept in the incubator at 37° C. overnight. Antagonists were solubilized at a concentration of 10 mM in DMSO, and the agonists were solubilized to stock concentrations of either 50 mM in H2O (β-Alanine) or 10 mM in DMSO (all others) and then diluted in assay buffer (final concentrations of 5.7 mM Tris-HCl, 43 mM NaCl, 50 mM LiCl, pH=8). The concentration of DMSO was normalized across the plate. Antagonists were added to the plate using a Tecan D300 Digital Dispenser at nanoliter/picoliter volumes and 2 μL of agonists in assay buffer were added to each well for a final assay volume of 14 μL. Plates were covered and incubated for 1 h at 37° C. and then for 1 h at room temperature. IP-1 standards and HTRF detection reagents were added according to an IP-One-Gq Kit purchased from Cisbio (part number 62IPAPEJ) and incubated in the dark for 1 h at room temperature. Assay plates were read on either a Molecular Devices SpectraMax iD5 plate reader or a BMG ClarioStar plate reader. The HTRF ratio was calculated form the raw data and graphed using GraphPad Prism to calculate IC50 values. Data are expressed as average IC50 values and average percent antagonism calculated as a percent of the maximum efficacy response. For these studies, the variability of the data was assessed by determining the standard error of mean (SEM).
The activity ranges are denoted as follows: “+++++” denotes antagonist activity <100 nM; “++++” denotes antagonist activity between 100 and 500 nM; “+++” denotes activity between 500 and 1000 nM; “++” denotes activity between 1000 and 3000 nM; and “+” denotes activity >3000 nM.

Sequence of human MRGPRD (Q8TDS7 whole entry): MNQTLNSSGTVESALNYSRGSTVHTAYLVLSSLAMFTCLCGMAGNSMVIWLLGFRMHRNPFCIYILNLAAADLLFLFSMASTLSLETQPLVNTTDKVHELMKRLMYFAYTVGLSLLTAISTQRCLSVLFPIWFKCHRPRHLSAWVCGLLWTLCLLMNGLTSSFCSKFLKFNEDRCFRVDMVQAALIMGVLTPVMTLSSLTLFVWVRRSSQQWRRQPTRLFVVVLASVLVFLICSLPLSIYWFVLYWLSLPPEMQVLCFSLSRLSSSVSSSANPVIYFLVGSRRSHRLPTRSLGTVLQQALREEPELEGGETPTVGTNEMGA

Structure (SMILES)	IC50
COc1cccc(-c2nc([C@@H]3CCCN(C(=O)Nc4ccccc4OC(F)(F)F)C3)n3ccccc23)c1 [Compound 5-13]	500 to 1000 nM
COc1cccc(-c2nc([C@@H]3CCCN(C(=O)Nc4ccc(-n5cccn5)cc4)C3)n3ccccc23)c1 [Compound 5-16]	< 100 nM
COc1cccc(-c2nc([C@@H]3CCCN(C(=O)NCc4ccc(N(C)C)cc4)C3)n3ccccc23)c1 [Compound 5-17]	< 100 nM
COc1cccc(-c2nc(C3CCCN(C(=O)Nc4cccc(N(C)C)c4)C3)n3ncccc23)c1 (stereo not drawn) [Compound 5-19]	< 100 nM
COc1cccc(-c2nc(C3CCCN(C(=O)Nc4ccc(N(C)C)cc4)C3)n3ncccc23)c1 (stereo not drawn) [Compound 5-20]	< 100 nM
COc1cccc(-c2nc([C@@H]3CCCN(C(=O)Nc4ccc(OC(F)(F)F)cc4)C3)n3ccccc23)c1 [Compound 5-21]	500 to 1000 nM
COc1cccc(-c2nc([C@@H]3CCCN(C(=O)Nc4ccc(-c5ccccc5)cc4)C3)n3ccccc23)c1 [Compound 5-22]	1000 to 3000 nM
COc1cccc(-c2nc([C@@H]3CCCN(C(=O)NCCc4nc(C)cs4)C3)n3ccccc23)c1 [Compound 5-30]	100 to 500 nM
COc1cccc(-c2nc([C@@H]3CCCN(C(=O)NC4CCc5ccccc5C4)C3)n3ccccc23)c1 (stereo partly drawn) [Compound 5-38]	100 to 500 nM
COCCNC(=O)N1CCC[C@@H](c2nc(-c3cccc(OC)c3)c3ccccn23)C1 [Compound 5-41]	100 to 500 nM
COc1cccc(-c2nc([C@@H]3CCCN(C(=O)NC4CCCCC4)C3)n3ccccc23)c1 [Compound 5-43]	100 to 500 nM
COc1cccc(-c2nc([C@@H]3CCCN(C(=O)NCc4nccs4)C3)n3ccccc23)c1 [Compound 5-45]	< 100 nM
COc1cccc(-c2nc([C@@H]3CCCN(C(=O)NCCN4CCCCC4)C3)n3ccccc23)c1 [Compound 5-46]	500 to 1000 nM
COc1cccc(-c2nc([C@@H]3CCCN(C(=O)NC4CCS(=O)(=O)CC4)C3)n3ccccc23)c1 [Compound 5-48]	100 to 500 nM
CCOCn1cc(NC(=O)N2CCC[C@@H](c3nc(-c4cccc(OC)c4)c4ccccn34)C2)cn1 [Compound 5-49]	< 100 nM
COc1cccc(-c2nc([C@@H]3CCCN(C(=O)Nc4onc(C)c4C)C3)n3ccccc23)c1 [Compound 5-50]	< 100 nM
COc1cccc(-c2nc([C@@H]3CCCN(C(=O)NCCS(C)(=O)=O)C3)n3ccccc23)c1 [Compound 5-52]	100 to 500 nM
CCc1csc(NC(=O)N2CCC[C@@H](c3nc(-c4cccc(OC)c4)c4ccccn34)C2)n1 [Compound 5-54]	500 to 1000 nM
COc1cccc(-c2nc([C@@H]3CCCN(C(=O)NC4(c5ccccc5)CC4)C3)n3ccccc23)c1 [Compound 5-55]	< 100 nM
COc1cccc(-c2nc([C@@H]3CCCN(C(=O)N[C@H]4CC[C@@H](O)CC4)C3)n3ccccc23)c1 [Compound 5-56]	100 to 500 nM
COc1ccc(CNC(=O)N2CCC[C@@H](c3nc(-c4cccc(OC)c4)c4ccccn34)C2)cc1 [Compound 5-58]	< 100 nM
COc1cccc(-c2nc([C@@H]3CCCN(C(=O)Nc4cc(C)nn4C)C3)n3ccccc23)c1 [Compound 5-59]	< 100 nM
COc1cccc(-c2nc([C@@H]3CCCN(C(=O)NCc4ccccc4)C3)n3ccccc23)c1 [Compound 5-60]	< 100 nM

Further lines, results first:

IC50	Structure (SMILES)
100 to 500 nM	COc1cccc(-c2nc([C@@H]3CCCN(C(=O)Nc4ccc(F)cc4)C3)n3ccccc23)c1 [Compound 5-10]
100 to 500 nM	COc1cccc(-c2nc([C@@H]3CCCN(C(=O)Nc4ccccc4OC)C3)n3ccccc23)c1 [Compound 5-11]
< 100 nM	COc1cccc(-c2nc([C@@H]3CCCN(C(=O)Nc4ccccc4F)C3)n3ccccc23)c1 [Compound 5-12]
100 to 500 nM	CCOc1ccccc1NC(=O)N1CCC[C@@H](c2nc(-c3cccc(OC)c3)c3ccccn23)C1 [Compound 5-14]
< 100 nM	COc1cccc(-c2nc([C@@H]3CCCN(C(=O)Nc4cccc(C(C)=O)c4)C3)n3ccccc23)c1 [Compound 5-15]
< 100 nM	COc1cccc(-c2nc([C@@H]3CCCN(C(=O)Nc4cccc(C(=O)N(C)C)c4)C3)n3ccccc23)c1 [Compound 5-18]
500 to 1000 nM	COc1cccc(-c2nc([C@@H]3CCCN(C(=O)Nc4ccc(C(F)(F)F)cc4)C3)n3ccccc23)c1 [Compound 5-23]
< 100 nM	COc1cccc(-c2nc([C@@H]3CCCN(C(=O)Nc4ccc(C(C)=O)cc4)C3)n3ccccc23)c1 [Compound 5-24]
< 100 nM	COc1cccc(-c2nc([C@@H]3CCCN(C(=O)Nc4ccc(C)cc4C)C3)n3ccccc23)c1 [Compound 5-25]
100 to 500 nM	COc1cccc(-c2nc([C@@H]3CCCN(C(=O)Nc4cccc5c4CCC5)C3)n3ccccc23)c1 [Compound 5-26]
< 100 nM	COc1cccc(-c2nc([C@@H]3CCCN(C(=O)Nc4ccc5c(c4)OCO5)C3)n3ccccc23)c1 [Compound 5-27]
< 100 nM	COc1cccc(-c2nc([C@@H]3CCCN(C(=O)Nc4ccccc4CO)C3)n3ccccc23)c1 [Compound 5-28]
100 to 500 nM	COc1cccc(-c2nc([C@@H]3CCCN(C(=O)Nc4cccc(CN(C)C)c4)C3)n3ccccc23)c1 [Compound 5-31]
100 to 500 nM	COc1cccc(-c2nc([C@@H]3CCCN(C(=O)Nc4ccc5c(c4)CCC5)C3)n3ccccc23)c1 [Compound 5-32]
1000 to 3000 nM	COc1cccc(-c2nc([C@@H]3CCCN(C(=O)Nc4ccccc4C(=O)N(C)C)C3)n3ccccc23)c1 [Compound 5-33]
1000 to 3000 nM	COc1cccc(-c2nc([C@@H]3CCCN(C(=O)Nc4ccccc4C(C)=O)C3)n3ccccc23)c1 [Compound 5-34]
< 100 nM	COc1cccc(-c2nc([C@@H]3CCCN(C(=O)Nc4cccc5c4OCO5)C3)n3ccccc23)c1 [Compound 5-35]
100 to 500 nM	COc1cccc(-c2nc([C@@H]3CCCN(C(=O)Nc4cccc(N(C)C)c4)C3)n3ccccc23)c1 [Compound 5-36]
100 to 500 nM	COc1cccc(-c2nc([C@@H]3CCCN(C(=O)Nc4ccccc4N(C)C)C3)n3ccccc23)c1 [Compound 5-37]
100 to 500 nM	COc1cccc(-c2nc([C@@H]3CCCN(C(=O)Nc4cccc5ccccc45)C3)n3ccccc23)c1 [Compound 5-39]
< 100 nM	COc1cccc(-c2nc([C@@H]3CCCN(C(=O)Nc4ccc5cccnc5c4)C3)n3ccccc23)c1 [Compound 5-40]
< 100 nM	COc1cccc(-c2nc([C@@H]3CCCN(C(=O)Nc4ccc5nc(C(C)(C)C)[nH]c5c4)C3)n3ccccc23)c1 [Compound 5-42]
< 100 nM	COc1cccc(-c2nc([C@@H]3CCCN(C(=O)Nc4ccn(C)n4)C3)n3ccccc23)c1 [Compound 5-44]
< 100 nM	COc1cccc(-c2nc([C@@H]3CCCN(C(=O)Nc4ccc5c(c4)CCC(C)(C)O5)C3)n3ccccc23)c1 [Compound 5-47]
< 100 nM	COc1cccc(-c2nc([C@@H]3CCCN(C(=O)Nc4ccc5c(c4)ncn5C)C3)n3ccccc23)c1 [Compound 5-51]
< 100 nM	COc1cccc(-c2nc([C@@H]3CCCN(C(=O)Nc4ccc5c(c4)CN(C)C5)C3)n3ccccc23)c1 [Compound 5-53]
< 100 nM	COc1cccc(-c2nc([C@@H]3CCCN(C(=O)Nc4ccc5c(c4)COCO5)C3)n3ccccc23)c1 [Compound 5-57]
< 100 nM	COc1cccc(-c2nc([C@@H]3CCCN(C(=O)Nc4cccc(-c5csc(C)n5)c4)C3)n3ccccc23)c1 [Compound 5-61]
